# Measurements published in ChEMBL document CHEMBL6153161, “Exploring Arylidene-Indolinone Ligands of Autophagy Proteins LC3B and GABARAP” (ACS Med Chem Lett, 2025).
# pIC50, pKd: −log10 of the molar value.
# Columns and labels:
# [1] = Inhibition of GABARAP (unknown origin) expressed in Escherichia coli BL21(DE3) incubated for 45 mins by AlphaScreen assay; set-up: species or system Homo sapiens
# [2] = molecular target: T1, Microtubule-associated protein 1 light chain 3 beta (Homo sapiens, UniProt Q9GZQ8); test: Inhibition of LC3B (unknown origin) expressed in Escherichia coli BL21(DE3) incubated for 45 mins by AlphaScreen assay
# [3] = Binding affinity to GABARAP (unknown origin) assessed as dissociation constant by biolayer interferometry analysis; set-up: species or system Homo sapiens
# [4] = molecular target: T1, Microtubule-associated protein 1 light chain 3 beta; test: Binding affinity against recombinant LC3B (unknown origin) assessed as dissociation constant by 2D-NMR titration assay
# [5] = molecular target: T1, Microtubule-associated protein 1 light chain 3 beta; test: Binding affinity against recombinant LC3B (unknown origin) assessed as dissociation constant by small molecule microarray with a scanning oblique-incidence reflectivity difference microscopic analysis
# Bacteria = test: Inhibition of beta-lactamase (unknown origin) at up to 25 uM incubated for 15 mins by beta-lactamase assay
# [6] = molecular target: T1, Microtubule-associated protein 1 light chain 3 beta; test: Binding affinity against recombinant LC3B (unknown origin) assessed as dissociation constant by surface plasmon resonance assay
SMILES,pIC50 [1],pIC50 [2],other results
O=C1Nc2ccc(I)cc2/C1=C\c1cnc[nH]1,< 4.15,–,–
COC(=O)c1ccc2c(c1)NC(=O)/C2=C/c1cc(Br)c(O)c(Br)c1,5.24,–,–
O=C1Nc2ccc(I)cc2/C1=C\c1ccc(-c2ccc(C(F)(F)F)cc2)cc1,< 6.00,< 6.00,–
O=C1Nc2ccc(Br)cc2/C1=C\c1cc(Br)c(O)c(Br)c1,4.89,–,–
O=C1Nc2ccc(I)cc2/C1=C\c1cccc2nccn12,< 4.90,< 4.90,–
O=C1Nc2ccc(I)cc2/C1=C\c1ccccc1,< 4.60,–,–
COc1ccc(/C=C2/C(=O)Nc3ccc(I)cc32)cc1,< 4.96,< 4.96,–
Cc1ccc2c(c1)NC(=O)/C2=C/c1cc(Br)c(O)c(Br)c1,4.62,–,–
Cc1ncsc1/C=C1/C(=O)Nc2ccc(I)cc21,< 4.85,–,–
O=C1Nc2ccc(I)cc2/C1=C\c1cc(Br)cc(Br)c1,< 5.19,–,–
O=C1Nc2ccc(I)cc2/C1=C\c1ccc(O)cc1,< 5.00,< 5.00,–
O=C1Nc2ccc(I)cc2/C1=C\c1ccc[nH]1,< 5.74,< 5.74,–
CC(C)C[C@H](NC(=O)[C@H](Cc1c[nH]cn1)NC(=O)[C@H](CCC(=O)O)NC(=O)[C@H](Cc1c[nH]c2ccccc12)NC(=O)[C@@H](NC(=O)[C@H](Cc1ccc(O)cc1)NC(=O)[C@@H](NC(=O)[C@H](C)NC(=O)[C@H](CC(=O)O)NC(=O)CCCC[C@@H]1SC[C@@H]2NC(=O)N[C@@H]21)[C@@H](C)O)[C@@H](C)O)C(=O)N[C@@H](C)C(=O)N[C@@H](Cc1c[nH]c2ccccc12)C(=O)N1CCC[C@H]1C(=O)O,7.26,–,pKd [3]: 7.26
O=C1Nc2ccc(I)cc2/C1=C\c1cncs1,< 5.46,< 5.46,–
O=C1Nc2cc(I)ccc2/C1=C\c1cc(Br)c(O)c(Br)c1,4.92,–,–
O=C1Nc2ccc(I)cc2/C1=C\c1cc(Br)c(O)c(Br)c1,5.04,5.36,pKd [4]: < 3.70; pKd [5]: 6.33; inhibition (Bacteria): No effect; pKd [6]: 5.05
O=C1Nc2ccc(I)cc2/C1=C\c1ccc(C(=O)O)cc1,4.12,3.92,–
O=C1Nc2ccc(I)cc2/C1=C\c1cc(Br)cc(Br)c1O,4.82,–,–
O=C1Nc2cc(Cl)c(Cl)cc2/C1=C\c1cc(Br)c(O)c(Br)c1,< 4.60,–,–
O=C1Nc2ccccc2/C1=C\c1cc(Br)c(O)c(Br)c1,3.76,3.75,–
